Test results as given in patent US7750184B2, “Vitamin D receptor modulators” (Eli Lilly and Company, priority 2003, dated 2010).

Legend:
[1] = Mouse hypercalcemia assay; settings: oral gavage for 6 days, serum ionized calcium 6 hours after last dosing
Method: The Mouse Hypercalcemia Assay is a six day hypercalcemia test for toxicity and selectivity. Acceptable test results are levels greater than 300 μg/kg/day. Preferred assay results are levels greater than 1000 μg/day.
(4) Materials and Method for the Mouse Hypercalcemia Assay:
Weanling, virus—antibody-free, five to six weeks old female DBF mice (Harlan, Indianapolis, Ind.) are used for all the studies. Animals are allowed to acclimate to local vivarium conditions for 2 days. […] The animals then are divided into groups with 4-5 mice per group. Different doses of test compounds prepared in 10% Ethanol and 90% sesame oil are administered to mice orally via gavage for 6 days. 1α-25(OH)2D3 0.5 μg/kg/d was also given to one group of mice as the positive control. […] Raw data of group differences is assessed by analysis of variance (ANOVA) using Fisher's protected least significant difference (PLSD) where the significance level was P<0.05.

rat osteocalcin promoter = experiment: OCN (osteocalcin) promoter assay; format: cell-based; settings: RG-15 (ROS 17/2.8) cells, 48 hr treatment, luciferase reporter
Method: 3. The OCN (osteocalcin) Promoter Assay
The OCN Promoter Assay is an indicator and marker for osteoporosis. […] Preferred assay results are less than 50 nM.
(3) Materials and Method for the OCN Promoter Assay:
The activation of osteocalcin by VDR ligands was evaluated in a rat osteoblast-like cell line RG-15 (ROS 17/2.8) stably expressing rat osteocalcin promoter fused with luciferase reporter gene. […] Confluent RG-15 cells maintained in DMEM/F-12 medium (3:1) containing 5% FBS, 300 μg/ml G418 and at 37° C. under 5% CO2/95% air atmosphere were trypsinized (0.25% trypsin) and plated into white opaque 96-well cell culture plates (25000 cells/well). After 24 hr, cells (in DMEM/F-12 medium+2% FBS) were treated with various concentrations of compounds, dissolved in DMSO. The final DMSO concentration remained at 0.01% (v/v). After 48 hr treatment, the medium was removed, cells were lysed with 50 μl of lysis buffer (From Luciferase reporter assay system, Roche Diagnostics, Indianapolis, Ind.) and assayed for luciferase activity using the Luciferase Reporter Gene Assay kit from Boehringer Mannheim as per manufacturer's specifications.

VDR = target: T1, VDR (Homo sapiens, UniProt P11473); experiment: Caco-2 cell co-transfection assay (VDR CTF); format: cell-based; settings: Caco-2 cells, pGal4-VDR-LBD co-transfection, luciferase reporter
T1 construct: the receptor expression vector pGal4-VDR-LBD (10 ng); expressed in transfected cells; host or cells: Caco-2 cells
T1 sequence (P11473 127-423 limits assumed): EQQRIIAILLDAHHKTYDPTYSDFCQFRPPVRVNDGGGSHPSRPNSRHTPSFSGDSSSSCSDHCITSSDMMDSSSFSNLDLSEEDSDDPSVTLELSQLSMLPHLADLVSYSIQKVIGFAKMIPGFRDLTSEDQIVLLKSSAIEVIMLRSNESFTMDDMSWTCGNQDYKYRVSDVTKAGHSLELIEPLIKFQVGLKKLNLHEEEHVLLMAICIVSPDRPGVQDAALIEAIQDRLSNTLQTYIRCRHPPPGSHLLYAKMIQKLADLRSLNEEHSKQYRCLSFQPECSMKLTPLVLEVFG
Method: 2. The Caco-2 Cell Co-Transfection Assay:
The Caco-2 cell assay is an indicator for the undesirable condition of hypercalcemia. This co-transfection assay is a surrogate assay for in vivo calcemic activity of VDR ligands. […] Preferred assay results are greater than 1000 nM.
(2) Materials and Method for The Caco-2 Cell Assay:
Caco-2 cells, grown in phenol red free, DMEM (Invitrogen, Carlsbad, Calif.) containing 10% charcoal-stripped FCS (Hyclone, Logan, Utah), were transfected with Fugene 6 reagent (Roche Diagnostics, Indianapolis, Ind.). Cells (5000/well) were plated 18 h before transfection in a 96 well plate. The Cells were transfected with Gal4-responsive reporter pFRLuc (150 ng, Stratagene, La Jolla Calif.) and the receptor expression vector pGal4-VDR-LBD (10 ng), along with Fugene 6 reagent (0.2 μl/well). The DNA-Fugene complex was formed by incubating the mixture for 30 min at room temperature. The cells were transfected in triplicate for 5 h, and treated with various concentrations of VDR ligands (form 0.01 nM to 10,000 nM concentration range) 18 h post-transfection. The luciferase activity was quantified using Steady-Glo reagent kit (Promega, Madison, Wis.) as per manufacturer's specifications.

Compound | Mouse Hypercal [1] [µg/kg/day] | EC50 (rat osteocalcin promoter) [µM] | EC50 (VDR) [nM] | EC50 (rat osteocalcin promoter; Rattus norvegicus, 48 h) [µM]
CCC(CC)(c1ccc(OC[C@H](O)C(C)(C)C)c(C)c1)c1ccc(OS(C)(=O)=O)c(C)c1 (single isomer, unassigned) [Ex. 2, 3′-[4-(2-hydroxy-3,3-dimethylbutoxy)-3-methylphenyl]-3′-[4-(methanesulfonyloxy)-3-methylphenyl]pentane] | 50 | 0.0051 | 46.5 | 
CCC(CC)(c1ccc(OC[C@H](O)C(C)(C)C)c(C)c1)c1ccc(OS(C)(=O)=O)c(C)c1 (single isomer, unassigned) [Ex. 3, 3′-[4-(2-hydroxy-3,3-dimethylbutoxy)-3-methylphenyl]-3′-[4-(methanesulfonyloxy)-3-methylphenyl]pentane] | 50 | 0.0163 | 133 | 
CCC(CC)(c1ccc(OCC(O)C(C)(C)C)c(C)c1)c1ccc(N(C)S(C)(=O)=O)c(C)c1 (single isomer, unassigned) [Ex. 20, N-(4-{1-ethyl-1-[4-(2-hydroxy-3,3-dimethyl-butoxy)-3-methyl-phenyl]-propyl}-2-methyl-phenyl)-N-methyl-methanesulfonamide] | 500 | 0.0281 |  | 
CCC(CC)(c1ccc(OCC(O)CO)c(C)c1)c1ccc(OCC(O)C(C)(C)C)c(C)c1 (centres unmarked) [BB, 3-(4-{1-Ethyl-1-[4-(2-hydroxy-3,3-dimethyl-butoxy)-3-methyl-phenyl]-propyl}-2-methyl-phenoxy)-propane-1,2-diol, reference compound] | 20 |  |  | 0.011
CCC(CC)(c1ccc(OCC(=O)C(C)(C)C)c(C)c1)c1ccc(OS(C)(=O)=O)c(C)c1 [Ex. 4, 3′-[4-(2-oxo-3,3-dimethylbutoxy)-3-methylphenyl]-3′-[4-(methanesulfonyloxy)-3-methylphenyl]pentane] |  |  | 164 | 0.00091
CCC(CC)(c1ccc(OCC(=O)C(C)(C)C)c(C)c1)c1ccc(OS(=O)(=O)CC)c(C)c1 [Ex. 8, 3′-[4-(2-oxo-3,3-dimethylbutoxy)-3-methylphenyl]-3′-[4-(ethanesulfonyloxy)-3-methylphenyl]pentane] |  |  | 34.8 | 0.00348
CCC(CC)(c1ccc(OCC(O)C(C)(C)C)c(C)c1)c1ccc(OS(=O)(=O)CC)c(C)c1 (centres unmarked) [Ex. 9, 3′-[4-(2-hydroxy-3,3-dimethylbutoxy)-3-methylphenyl]-3′-[4-(ethanesulfonyloxy)-3-methylphenyl]pentane] |  |  | 13 | 
CCC(CC)(c1ccc(OCC(C)(O)C(C)(C)C)c(C)c1)c1ccc(OS(=O)(=O)CC)c(C)c1 (centres unmarked) [Ex. 10, 3′-[4-(2-hydroxy-2-methyl-3,3-dimethylbutoxy)-3-methylphenyl]-3′-[4-(ethanesulfonyloxy)-3-methylphenyl]pentane] |  |  | 15 | 0.0003
CCC(CC)(c1ccc(NS(C)(=O)=O)c(C)c1)c1ccc(OCC(O)C(C)(C)C)c(C)c1 (centres unmarked) [Ex. 12, 3′-[4-(2-Hydroxy-3,3-dimethylbutoxy)-3-methylphenyl]-3′-[4-(methanesulfonylamino)-3-methylphenyl]pentane] |  |  | 112 | 0.00233
CCC(CC)(c1ccc(OCC(O)C(C)(C)C)c(C)c1)c1ccc(N(C)S(C)(=O)=O)c(C)c1 (centres unmarked) [Ex. 19, N-(4-{1-Ethyl-1-[4-(2-hydroxy-3,3-dimethyl-butoxy)-3-methyl-phenyl]-propyl}-2-methyl-phenyl)-N-methyl-methanesulfonamide] |  |  |  | 0.0168
CCC(CC)(c1ccc(OCC(=O)C(C)(C)C)c(C)c1)c1ccc(N(S(=O)(=O)CC)S(=O)(=O)CC)c(C)c1 [Ex. 22, N-(4-{1-[4-(3,3-dimethyl-2-oxo-butoxy)-3-methyl-phenyl]-1-ethyl-propyl}-2-methyl-phenyl)-N,N-bis-ethanesulfonamide] | 500 |  |  | 0.0298
CCC(CC)(c1ccc(OCC(=O)C(C)(C)C)c(C)c1)c1ccc(N(C)S(=O)(=O)CC)c(C)c1 [Ex. 24, N-(4-{1-[4-(3,3-Dimethyl-2-oxo-butoxy)-3-methyl-phenyl]-1-ethyl-propyl}-2-methyl-phenyl)-N-methyl-ethanesulfonamide] | <1000 |  |  | 0.0447
CCC(CC)(c1ccc(NS(=O)(=O)C(F)(F)F)c(C)c1)c1ccc(OCC(=O)C(C)(C)C)c(C)c1 [Ex. 27, N-(4-{1-[4-(3,3-Dimethyl-2-oxo-butoxy)-3-methyl-phenyl]-1-ethyl-propyl}-2-methyl-phenyl)-trifluoromethanesulfonamide] | 500 |  |  | 0.0106
CCC(CC)(c1ccc(OCC(=O)C(C)(C)C)c(C)c1)c1ccc(N(S(=O)(=O)CC(F)(F)F)S(=O)(=O)CC(F)(F)F)c(C)c1 [Ex. 28, N-(4-{1-[4-(3,3-Dimethyl-2-oxo-butoxy)-3-methyl-phenyl]-1-ethyl-propyl}-2-methyl-phenyl)-N,N-bis-2,2,2-trifluoro-ethanesulfonamide] | 1000 |  |  | 0.0179
CCC(CC)(c1ccc(NS(=O)(=O)CC(F)(F)F)c(C)c1)c1ccc(OCC(=O)C(C)(C)C)c(C)c1 [Ex. 29, N-(4-{1-[4-(3,3-Dimethyl-2-oxo-butoxy)-3-methyl-phenyl]-1-ethyl-propyl}-2-methyl-phenyl)-2,2,2-trifluoro-ethanesulfonamide] | 100 |  |  | 0.00458
CCC(CC)(c1ccc(OCC(=O)C(C)(C)C)c(C)c1)c1ccc(N(CCSC)S(C)(=O)=O)c(C)c1 [Ex. 30, N-(4-{1-[4-(3,3-Dimethyl-2-oxo-butoxy)-3-methyl-phenyl]-1-ethyl-propyl}-2-methyl-phenyl)-N-(2-methylsulfanyl-ethyl)-methanesulfonamide] |  |  |  | 0.104
CCSCCS(=O)(=O)Nc1ccc(C(CC)(CC)c2ccc(OCC(=O)C(C)(C)C)c(C)c2)cc1C [Ex. 31, N-(4-{1-[4-(3,3-Dimethyl-2-oxo-butoxy)-3-methyl-phenyl]-1-ethyl-propyl}-2-methyl-phenyl)-2-ethylsulfanyl-ethanesulfonamide] |  |  |  | 0.044
CCC(CC)(c1ccc(NS(=O)(=O)CCS(=O)(=O)CC)c(C)c1)c1ccc(OCC(=O)C(C)(C)C)c(C)c1 [Ex. 32, N-(4-{1-[4-(3,3-Dimethyl-2-oxo-butoxy)-3-methyl-phenyl]-1-ethyl-propyl}-2-methyl-phenyl)-2-ethanesulfonyl-ethanesulfonamide] |  |  |  | 0.24
CCC(CC)(c1ccc(NS(=O)(=O)CCSC(C)C)c(C)c1)c1ccc(OCC(=O)C(C)(C)C)c(C)c1 [Ex. 33, N-(4-{1-[4-(3,3-Dimethyl-2-oxo-butoxy)-3-methyl-phenyl]-1-ethyl-propyl}-2-methyl-phenyl)-2-isopropylsulfanyl-ethanesulfonamide] |  |  |  | 0.0494
CCC(CC)(c1ccc(NS(=O)(=O)CCS(=O)(=O)C(C)C)c(C)c1)c1ccc(OCC(=O)C(C)(C)C)c(C)c1 [Ex. 34, N-(4-{1-[4-(3,3-Dimethyl-2-oxo-butoxy)-3-methyl-phenyl]-1-ethyl-propyl}-2-methyl-phenyl)-2-(propane-2-sulfonyl)-ethanesulfonamide] |  |  |  | 0.374
CCC(CC)(c1ccc(OCC(O)C(C)(C)C)cc1)c1ccc(OS(C)(=O)=O)c(C)c1 (centres unmarked) [Ex. 37, 3′-[4-(2-hydroxy-3,3-dimethylbutoxy)-phenyl]-3′-[4-methylsulfonyloxy-3-methylphenyl]pentane] |  |  | 308 | 0.0672
CCC(CC)(c1ccc(OS(C)(=O)=O)cc1)c1ccc(OCC(=O)C(C)(C)C)c(C)c1 [Ex. 38, 3′-[4-(2-oxo-3,3-dimethylbutoxy)-3-methylphenyl]-3′-[4-methylsulfonyloxy-phenyl]pentane] | <300 |  |  | 0.00209
CCC(CC)(c1ccc(OCC(=O)C(C)(C)C)cc1)c1cc(C)c(OS(C)(=O)=O)c(C)c1 [Ex. 41, 3′-[4-(2-oxo-3,3-dimethylbutoxy)-phenyl]-3′-[3,5-dimethyl-4-methylsulfonyloxy-phenyl]pentane] |  |  | 614 | 0.111
